{"source": "patent US6693108B2", "about": "“Inhibitors of c-JUN N terminal kinases (JNK) and other protein kinases” (Vertex Pharmaceuticals Incorporated, priority 1999, dated 2004)"}
{"target": "T1, activated JNK3 (Homo sapiens, UniProt P53779)", "T1 construct": "One such construct encodes amino acid residues Ser40-Glu402 of JNK3α1 and is preceded by Met and Gly residues; Met-Gly (initiation Met plus Gly added to create the NcoI site) (N); made in house; host or cells: E. coli BL21 (DE3)", "T1 sequence (P53779 40-402)": "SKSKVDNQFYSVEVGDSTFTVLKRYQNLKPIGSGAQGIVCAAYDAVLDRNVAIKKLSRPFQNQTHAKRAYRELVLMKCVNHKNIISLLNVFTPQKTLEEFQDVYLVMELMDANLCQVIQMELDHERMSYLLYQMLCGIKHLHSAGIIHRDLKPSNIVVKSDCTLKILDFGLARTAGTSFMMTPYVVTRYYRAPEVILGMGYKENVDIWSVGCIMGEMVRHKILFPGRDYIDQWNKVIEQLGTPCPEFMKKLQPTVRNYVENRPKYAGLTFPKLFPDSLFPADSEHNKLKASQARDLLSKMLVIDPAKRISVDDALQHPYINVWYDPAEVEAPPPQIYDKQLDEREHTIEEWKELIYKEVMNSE", "assay": "JNK3 inhibition, spectrophotometric coupled-enzyme assay", "assay_type": "biochemical", "design": "Activity in the JNK3 Inhibition Assay (Ki rating): scale not given here", "details": "activated JNK3 10 nM, 10 μM ATP, 30° C.; Ki from competitive inhibition model", "source_text": "(§1) A BLAST search of the EST database using the published JNK3α1 cDNA as a query identified an EST clone (#632588) that contained the entire coding sequence for human JNK3α1. Polymerase chain reactions (PCR) using pfu polymerase (Strategene) were used to introduce restriction sites into the cDNA for cloning into the pET-15B expression vector at the NcoI and BamHI sites. The protein was expressed in E. coli. […] This truncation corresponds to Ser 2 of JNK1 and JNK2 proteins, and is preceded by a methionine (initiation) and a glycine residue. The glycine residue was added in order to introduce an NcoI site for cloning into the expression vector. In addition, systematic C-terminal truncations were performed by PCR to identify a construct that give rise to diffraction-quality crystals.\n(§2) 5 mg of JNK3 was diluted to 0.5 mg/ml in 50 mM HEPES buffer, pH 7.5, containing 100 mM NaCl, 5 mM DTT, 20 mM MgCl2 and 1 mM ATP. GST-MKK7(DD) was added at a molar ratio of 1:2.5 GST-MKK7:JNK3. After incubation for 30 minutes at 25° C., the reaction mixture was concentrated 5-fold by ultrafiltration in a Centriprep-30 (Amicon, Beverly, Mass.), diluted to 10 ml and an additional 1 mM ATP added. This procedure was repeated three times to remove ADP and replenish ATP. The final addition of ATP was 5 mM and the mixture incubated overnight at 4° C.\n(§3) The activated JNK3/GST-MKK7(DD) reaction mixture was exchanged into 50 mM HEPES buffer, pH 7.5, containing 5 mM DTT and 5% glycerol (w/v) by dialysis or ultrafiltration. The reaction mixture was adjusted to 1.1 M potassium phosphate, pH 7.5, and purified by hydrophobic interaction chromatography (at 25° C.) using a Rainin Hydropore column. […] Activated JNK3 (i.e. doubly phosphorylated JNK3) was stored at −70° C. at 0.25-1 mg/ml.\n(§4) Compounds were assayed for the inhibition of JNK3 by a spectrophotometric coupled-enzyme assay. In this assay, a fixed concentration of activated JNK3 (10 nM) was incubated with various concentrations of a potential inhibitor dissolved in DMSO for 10 minutes at 30° C. in a buffer containing 0.1 M HEPES buffer, pH 7.5, containing 10 mM MgCl2, 2.5 mM phosphoenolpyruvate, 200 μM NADH, 150 μg/mL pyruvate kinase, 50 μg/mL lactate dehydrogenase, and 200 μM EGF receptor peptide. […] The reaction was initiated by the addition of 10 μM ATP and the assay plate is inserted into the spectrophotometer's assay plate compartment that was maintained at 30° C. The decrease of absorbance at 340 nm was monitored as a function of time. The rate data as a function of inhibitor concentration was fitted to competitive inhibition kinetic model to determine the Ki."}
{"smiles": "COc1cccc(-c2noc(C)c2-c2ccnc(Nc3ccccc3)n2)c1OC", "note": "[IIA-12]", "Activity in the JNK3 Inhibition Assay (Ki rating)": "B/C"}
{"smiles": "Cc1onc(-c2ccccc2)c1-c1ccnc(Nc2cccc(F)c2C)n1", "note": "[IIA-70]", "Activity in the JNK3 Inhibition Assay (Ki rating)": "A/B"}
{"smiles": "COc1ccc(Cl)c(Nc2nccc(-c3c(-c4ccccc4)noc3C)n2)c1", "note": "[IIA-71]", "Activity in the JNK3 Inhibition Assay (Ki rating)": "A/B"}
{"smiles": "COc1ccc(Nc2nccc(-c3c(-c4ccccc4)noc3C)n2)cc1C", "note": "[IIA-72]", "Activity in the JNK3 Inhibition Assay (Ki rating)": "A/B"}
{"target": "T1, activated JNK3", "assay": "JNK3 inhibition, spectrophotometric coupled-enzyme assay", "assay_type": "biochemical", "design": "Activity in the JNK3 Inhibition Assay (Ki rating): scale not given here", "details": "read-out: Activity in the JNK3 Inhibition Assay (Ki rating)", "source_text": "as §1, §2, §3, §4", "units": {"Ki": "nM"}}
{"smiles": "Cc1onc(-c2ccccc2)c1-c1ccnc(Nc2ccccc2)n1", "note": "[IIA-1, [4-(5-Methyl-3-phenyl-isoxazol-4-yl)-pyrimidin-2-yl]-phenyl-amine]", "Ki": "< 100"}
{"smiles": "Cc1onc(-c2ccccc2)c1-c1ccnc(Nc2cccc(C#N)c2)n1", "note": "[IIA-7]", "Ki": "< 100"}
{"smiles": "Cc1onc(-c2ccc(F)cc2)c1-c1ccnc(Nc2ccccc2)n1", "note": "[IIA-11]", "Ki": "< 100"}
{"smiles": "COc1ccc(-c2noc(C)c2-c2ccnc(Nc3ccccc3)n2)c(OC)c1", "note": "[IIA-13]", "Ki": "> 1000"}
{"smiles": "Cc1onc(-c2ccc(Cl)c(Cl)c2)c1-c1ccnc(Nc2ccccc2)n1", "note": "[IIA-15]", "Ki": "100 to 1000"}
{"smiles": "CC(=O)c1ccc(Nc2nccc(-c3c(-c4ccccc4)noc3C)n2)cc1", "note": "[IIA-35]", "Ki": "< 100"}
{"smiles": "CSc1cccc(Nc2nccc(-c3c(-c4ccccc4)noc3C)n2)c1", "note": "[IIA-37]", "Ki": "< 100"}
{"smiles": "Cc1cc(Nc2nccc(-c3c(-c4ccccc4)noc3C)n2)ccc1C#N", "note": "[IIA-38]", "Ki": "< 100"}
{"smiles": "CC(=O)c1cccc(Nc2nccc(-c3c(-c4ccccc4)noc3C)n2)c1", "note": "[IIA-39]", "Ki": "< 100"}
{"smiles": "CCc1onc(-c2ccccc2)c1-c1ccnc(Nc2ccccc2)c1", "note": "[IIA-40]", "Ki": "< 100"}
{"smiles": "Cc1onc(-c2ccccc2)c1-c1ccnc(Nc2ccc(F)cc2)n1", "note": "[IIA-42]", "Ki": "< 100"}
{"smiles": "Cc1onc(-c2ccccc2)c1-c1ccnc(Nc2cccc(C(=O)O)c2)c1", "note": "[IIA-43]", "Ki": "< 100"}
{"smiles": "Cc1onc(-c2ccccc2)c1-c1ccnc(Nc2ccc(-c3ccccc3)cc2)n1", "note": "[IIA-44]", "Ki": "< 100"}
{"smiles": "CSc1ccc(Nc2nccc(-c3c(-c4ccccc4)noc3C)n2)cc1", "note": "[IIA-46]", "Ki": "< 100"}
{"smiles": "COc1ccc(Nc2cc(-c3c(-c4ccccc4)noc3C)ccn2)cc1", "note": "[IIA-47]", "Ki": "< 100"}
{"smiles": "Cc1onc(-c2ccccc2)c1-c1ccnc(Nc2ccccc2)c1", "note": "[IIA-52, [4-(5-Methyl-3-phenyl-isoxazol-4-yl)-pyridin-2-yl]phenyl-amine]", "Ki": "< 100"}
{"smiles": "Cc1onc(-c2ccccc2)c1-c1ccnc(Nc2ccc(C(=O)O)cc2)c1", "note": "[IIA-53]", "Ki": "< 100"}
{"smiles": "Cc1onc(-c2ccccc2F)c1-c1ccnc(Nc2ccccc2)n1", "note": "[IIA-55]", "Ki": "< 100"}
{"smiles": "Cc1onc(-c2ccccc2)c1-c1ccnc(Nc2ccc(F)cc2F)n1", "note": "[IIA-56]", "Ki": "< 100"}
{"smiles": "Cc1onc(-c2ccccc2)c1-c1ccnc(Nc2ccccc2F)n1", "note": "[IIA-59]", "Ki": "< 100"}
{"smiles": "Cc1onc(-c2c(F)cccc2F)c1-c1ccnc(Nc2ccccc2)n1", "note": "[IIA-60]", "Ki": "< 100"}
{"smiles": "COc1ccc(Nc2nccc(-c3c(-c4ccccc4)noc3C)n2)c(C)c1", "note": "[IIA-61]", "Ki": "< 100"}
{"smiles": "COc1ccccc1Nc1nccc(-c2c(-c3ccccc3)noc2C)n1", "note": "[IIA-62]", "Ki": "< 100"}
{"smiles": "Cc1onc(-c2ccccc2)c1-c1ccnc(Nc2ccc(S(C)(=O)=O)cc2)n1", "note": "[IIA-63]", "Ki": "< 100"}
{"smiles": "COC(=O)c1ccc(Nc2cc(-c3c(-c4ccccc4)noc3C)ccn2)cc1", "note": "[IIA-64]", "Ki": "< 100"}
{"smiles": "Cc1onc(-c2cccc(F)c2)c1-c1ccnc(Nc2ccccc2)n1", "note": "[IIA-66]", "Ki": "< 100"}
{"smiles": "Cc1onc(-c2ccccc2)c1-c1ccnc(Nc2cccc(C#N)c2)c1", "note": "[IIA-67]", "Ki": "< 100"}
{"smiles": "Cc1onc(-c2cc(F)ccc2F)c1-c1ccnc(Nc2ccccc2)n1", "note": "[IIA-74]", "Ki": "100 to 1000"}
{"smiles": "Cc1onc(-c2c(F)cccc2Cl)c1-c1ccnc(Nc2ccccc2)n1", "note": "[IIA-75]", "Ki": "100 to 1000"}
{"smiles": "Cc1onc(-c2ccccc2Cl)c1-c1ccnc(Nc2ccccc2)n1", "note": "[IIA-76]", "Ki": "100 to 1000"}
{"smiles": "Cc1onc(-c2ccccc2Br)c1-c1ccnc(Nc2ccccc2)n1", "note": "[IIA-79]", "Ki": "100 to 1000"}
{"smiles": "Cc1onc(-c2cccc(F)c2F)c1-c1ccnc(Nc2ccccc2)n1", "note": "[IIA-80]", "Ki": "100 to 1000"}
{"smiles": "Cc1onc(-c2cccc(C(F)(F)F)c2)c1-c1ccnc(Nc2ccccc2)n1", "note": "[IIA-82]", "Ki": "100 to 1000"}
{"smiles": "Cc1onc(-c2cc(F)cc(F)c2)c1-c1ccnc(Nc2ccccc2)n1", "note": "[IIA-83]", "Ki": "100 to 1000"}
{"smiles": "Cc1onc(-c2c(Cl)cccc2Cl)c1-c1ccnc(Nc2ccccc2)n1", "note": "[IIA-84]", "Ki": "100 to 1000"}
{"smiles": "COc1cccc(-c2noc(C)c2-c2ccnc(Nc3ccccc3)n2)c1OC", "note": "[IIA-85]", "Ki": "> 1000"}
{"smiles": "Cc1noc(C)c1-c1ccnc(Nc2ccccc2)n1", "note": "[IIA-86]", "Ki": "> 1000"}
{"smiles": "Cc1onc(C2CC2)c1-c1ccnc(Nc2ccccc2)n1", "note": "[IIA-87]", "Ki": "> 1000"}
{"smiles": "Cc1onc(C(C)(C)C)c1-c1ccnc(Nc2ccccc2)n1", "note": "[IIA-90]", "Ki": "< 100"}
{"smiles": "Cc1onc(-c2c(F)cccc2F)c1-c1ccnc(Nc2cccc(C#N)c2)n1", "note": "[IIA-92]", "Ki": "< 100"}
{"smiles": "Cc1onc(-c2c(F)cccc2F)c1-c1ccnc(Nc2ccc(C#N)cc2)n1", "note": "[IIA-93]", "Ki": "< 100"}
{"smiles": "Cc1onc(-c2c(F)cccc2F)c1-c1ccnc(Nc2cccc(F)c2)n1", "note": "[IIA-94]", "Ki": "< 100"}
{"smiles": "Cc1onc(-c2c(F)cccc2F)c1-c1ccnc(Nc2ccc(F)cc2)n1", "note": "[IIA-95]", "Ki": "< 100"}
{"smiles": "CSc1ccc(Nc2nccc(-c3c(-c4c(F)cccc4F)noc3C)n2)cc1", "note": "[IIA-97]", "Ki": "< 100"}
{"smiles": "Cc1onc(-c2ccccc2)c1-c1ccnc(Nc2ccc(N(C)C)cc2)c1", "note": "[IIA-98]", "Ki": "< 100"}
{"smiles": "Cc1ccc(Nc2nccc(-c3c(-c4ccccc4)noc3C)n2)cc1", "note": "[IIA-103]", "Ki": "< 100"}
{"smiles": "Cc1ccccc1-c1noc(C)c1-c1ccnc(Nc2ccccc2)n1", "note": "[IIA-104]", "Ki": "< 100"}
{"smiles": "Cc1ccccc1-c1noc(C)c1-c1ccnc(Nc2ccc(C#N)c(F)c2)n1", "note": "[IIA-105]", "Ki": "< 100"}
{"smiles": "Cc1cccc(Nc2nccc(-c3c(-c4ccccc4C)noc3C)n2)c1", "note": "[IIA-108]", "Ki": "< 100"}
{"smiles": "Cc1ccccc1-c1noc(C)c1-c1ccnc(Nc2cccc(C#N)c2)n1", "note": "[IIA-109]", "Ki": "< 100"}
{"smiles": "Cc1onc(-c2ccccc2C(F)(F)F)c1-c1ccnc(Nc2ccc(C#N)c(F)c2)n1", "note": "[IIA-110]", "Ki": "> 1000"}
{"smiles": "Cc1onc(-c2ccccc2C(F)(F)F)c1-c1ccnc(Nc2ccccc2)n1", "note": "[IIA-112]", "Ki": "> 1000"}
{"smiles": "Cc1onc(-c2ccc3c(c2)OCO3)c1-c1ccnc(Nc2ccccc2)n1", "note": "[IIA-115]", "Ki": "100 to 1000"}
{"smiles": "Cc1onc(-c2cccc(OCc3ccccc3)c2)c1-c1ccnc(Nc2ccc(C#N)c(F)c2)n1", "note": "[IIA-117]", "Ki": "100 to 1000"}
{"smiles": "Cc1onc(-c2cccc(OCc3ccccc3)c2)c1-c1ccnc(Nc2ccccc2)n1", "note": "[IIA-119]", "Ki": "100 to 1000"}
{"smiles": "Cc1onc(-c2cccc([N+](=O)[O-])c2)c1-c1ccnc(Nc2ccccc2)n1", "note": "[IIA-123]", "Ki": "100 to 1000"}
{"smiles": "Cc1onc(-c2cccc(C#N)c2)c1-c1ccnc(Nc2cccc(C#N)c2)n1", "note": "[IIA-126]", "Ki": "100 to 1000"}
{"smiles": "Cc1onc(-c2cccc(C#N)c2)c1-c1ccnc(Nc2ccccc2)n1", "note": "[IIA-127]", "Ki": "100 to 1000"}
{"smiles": "CCOC(=O)c1ccc(Nc2nccc(-c3c(-c4cccc([N+](=O)[O-])c4)noc3C)n2)cc1", "note": "[IIA-128]", "Ki": "100 to 1000"}
{"smiles": "COC(=O)c1cccc(Nc2nccc(-c3c(-c4cccc(C#N)c4)noc3C)n2)c1", "note": "[IIA-129]", "Ki": "100 to 1000"}
{"smiles": "CCOC(=O)c1cccc(Nc2nccc(-c3c(-c4ccccc4)noc3C)n2)c1", "note": "[IIA-130]", "Ki": "< 100"}
{"smiles": "Cc1onc(-c2ccccc2)c1-c1ccnc(Nc2cccc(CCC(=O)O)c2)c1", "note": "[IIA-132]", "Ki": "< 100"}
{"smiles": "Cc1onc(-c2ccccc2)c1-c1ccnc(Nc2cccc(CC(=O)O)c2)c1", "note": "[IIA-133]", "Ki": "< 100"}
